Laboratory results from US6849650B2, “Heterocyclic compounds, pharmaceutical compositions comprising same, and methods for inhibiting β-amyloid peptide release and/or its synthesis by use of such compounds” (Athena Neurosciences, Inc., priority 1998, dated 2005).

melting point: 158 to 160 °C
SMILES: COC(=O)C1(Cc2ccccc2)CNC(C(C)NC(=O)Cc2cc(F)cc(F)c2)=N1 (stereo not shown) [Example 5, 2-[1-(3,5-difluorophenylacetamido)ethyl]-4-methoxycarbonyl-4-phenylmethyl-2-imidazoline]
